What was measured:
barnyardgrass [1] = test: Test A preemergence; format: in vivo, Echinochloa crus-galli; details: 0 to 100 scale (0 no effect, 100 complete control)
Method in brief: (§1)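 Herbicidal response was scored on plants treated pre- or postemergence with surfactant-containing, non-phytotoxic solvent formulations. Preemergence meant a directed spray onto soil (loam–sand) holding sown seed; postemergence plants were at one to two leaves.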

foxtail, giant = test: Test A preemergence; format: in vivo, Setaria faberii; details: 0 to 100 scale (0 no effect, 100 complete control)
Method in brief: as §1

pigweed = test: Test A postemergence; format: in vivo, Amaranthus retroflexus; details: 0 to 100 scale (0 no effect, 100 complete control), approx. 10 d
Method in brief: as §1

wheat = test: Test A postemergence; format: in vivo, Triticum aestivum; details: 0 to 100 scale (0 no effect, 100 complete control), approx. 10 d
Method in brief: as §1

sedge, umbrella = test: Test B flooded paddy test; format: in vivo, Cyperus difformis; details: 250 g ai/ha, applied to paddy water at 2-leaf stage, visual rating after 13 to 15 d, scale 0 (no effect) to 100 (complete control)
Method in brief: (§2)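 Pots were flooded to 3 cm above the soil at treatment, and compounds were applied directly into the paddy water. That depth was held throughout. After 13 to 15 d in a greenhouse, plants were rated visually against untreated controls.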

barnyardgrass [2] = test: Test B flooded paddy test; format: in vivo, Echinochloa crus-galli; details: 250 g ai/ha, applied to paddy water at 2-leaf stage, visual rating after 13 to 15 d, scale 0 (no effect) to 100 (complete control)
Method in brief: as §2

galium = test: Test C postemergence; format: in vivo, Galium aparine
Excerpt: (§3) Seeds of plant species selected from blackgrass (Alopecurus myosuroides), ryegrass, Italian (Italian ryegrass, Lolium multiflorum), wheat (winter wheat, Triticum aestivum), galium (catchweed bedstraw, Galium aparine), corn (Zea mays), crabgrass, large (large crabgrass, Digitaria sanguinalis), foxtail, giant, (giant foxtail, Setaria faberii), johnsongrass (Sorghum halepense), lambsquarters (Chenopodium album), morningglory (Ipomoea coccinea), nutsedge, yellow (yellow nutsedge, Cyperus esculentus), pigweed (Amaranthus retroflexus), ragweed (common ragweed, Ambrosia elatior), soybean (Glycine max), barnyardgrass (Echinochloa crus-galli), oilseed rape (Brassica napus), waterhemp (common waterhemp, Amaranthus rudis), and velvetleaf (Abutilon theophrasti) were planted into a blend of loam soil and sand and treated preemergence with test chemicals formulated in a non-phytotoxic solvent mixture which included a surfactant. At the same time, plants selected from these crop and weed species and also chickweed (common chickweed, Stellaria media), oat, wild (wild oat, Avena fatua), and kochia (Kochia scoparia), were planted in pots containing Sunshine Redi-Earth® planting medium comprising spaghnum peat moss, vermiculite, starter nutrients and dolomitic limestone and treated with postemergence applications of test chemicals formulated in the same manner. Plants ranged in height from 2 to 18 cm (1- to 4-leaf stage) for postemergence treatments. […] A dash (-) response means no test result.

corn = test: Test C postemergence; format: in vivo, Zea mays
Excerpt: as §3

crabgrass, large = test: Test C postemergence; format: in vivo, Digitaria sanguinalis
Excerpt: as §3

lambsquarters = test: Test C postemergence; format: in vivo, Chenopodium album
Excerpt: as §3

morningglory = test: Test C postemergence; format: in vivo, Ipomoea coccinea
Excerpt: as §3

soybean = test: Test C postemergence; format: in vivo, Glycine max
Excerpt: as §3

waterhemp = test: Test C postemergence; format: in vivo, Amaranthus rudis
Excerpt: as §3

Compound: CCOc1nc(-c2ccc(Cl)cc2)nn1Cc1ccnc(C(F)(F)F)c1 [Compound 26]
- Plant response rating, Barnyardgrass (barnyardgrass [1]; 31 g ai/ha): 60
- Plant response rating, Barnyardgrass (barnyardgrass [1]; 125 g ai/ha): 90
- Plant response rating, Foxtail, Giant (foxtail, giant; 31 g ai/ha): 100
- Plant response rating, Foxtail, Giant (foxtail, giant; 125 g ai/ha): 100
- Plant response rating, Pigweed (pigweed; 31 g ai/ha): 80
- Plant response rating, Pigweed (pigweed; 125 g ai/ha): 100
- Plant response rating, Wheat (wheat; 31 g ai/ha): 20
- Plant response rating, Wheat (wheat; 125 g ai/ha): 20
- Plant response rating, Sedge, Umbrella, Flood (sedge, umbrella): 90
- Plant response rating, Barnyardgrass, Flood (barnyardgrass [2]): 50
- Plant response rating (scale of 0 to 100 where 0 is no effect and 100 is complete control) (galium; 16 g ai/ha): 80
- Plant response rating (scale of 0 to 100 where 0 is no effect and 100 is complete control) (galium; 31 g ai/ha): 90
- Plant response rating (scale of 0 to 100 where 0 is no effect and 100 is complete control) (galium; 62 g ai/ha): 90
- Plant response rating (scale of 0 to 100 where 0 is no effect and 100 is complete control) (galium; 125 g ai/ha): 90
- Plant response rating (scale of 0 to 100 where 0 is no effect and 100 is complete control) (corn; 16 g ai/ha): 25
- Plant response rating (scale of 0 to 100 where 0 is no effect and 100 is complete control) (corn; 31 g ai/ha): 25
- Plant response rating (scale of 0 to 100 where 0 is no effect and 100 is complete control) (corn; 62 g ai/ha): 30
- Plant response rating (scale of 0 to 100 where 0 is no effect and 100 is complete control) (corn; 125 g ai/ha): 35
- Plant response rating (scale of 0 to 100 where 0 is no effect and 100 is complete control) (crabgrass, large; 16 g ai/ha): 20
- Plant response rating (scale of 0 to 100 where 0 is no effect and 100 is complete control) (crabgrass, large; 31 g ai/ha): 20
- Plant response rating (scale of 0 to 100 where 0 is no effect and 100 is complete control) (crabgrass, large; 62 g ai/ha): 35
- Plant response rating (scale of 0 to 100 where 0 is no effect and 100 is complete control) (crabgrass, large; 125 g ai/ha): 50
- Plant response rating (scale of 0 to 100 where 0 is no effect and 100 is complete control) (lambsquarters; 16 g ai/ha): 100
- Plant response rating (scale of 0 to 100 where 0 is no effect and 100 is complete control) (lambsquarters; 31 g ai/ha): 100
- Plant response rating (scale of 0 to 100 where 0 is no effect and 100 is complete control) (lambsquarters; 62 g ai/ha): 100
- Plant response rating (scale of 0 to 100 where 0 is no effect and 100 is complete control) (lambsquarters; 125 g ai/ha): 100
- Plant response rating (scale of 0 to 100 where 0 is no effect and 100 is complete control) (morningglory; 16 g ai/ha): 90
- Plant response rating (scale of 0 to 100 where 0 is no effect and 100 is complete control) (morningglory; 31 g ai/ha): 90
- Plant response rating (scale of 0 to 100 where 0 is no effect and 100 is complete control) (morningglory; 62 g ai/ha): 75
- Plant response rating (scale of 0 to 100 where 0 is no effect and 100 is complete control) (morningglory; 125 g ai/ha): 85
- Plant response rating (scale of 0 to 100 where 0 is no effect and 100 is complete control) (soybean; 16 g ai/ha): 35
- Plant response rating (scale of 0 to 100 where 0 is no effect and 100 is complete control) (soybean; 31 g ai/ha): 70
- Plant response rating (scale of 0 to 100 where 0 is no effect and 100 is complete control) (soybean; 62 g ai/ha): 65
- Plant response rating (scale of 0 to 100 where 0 is no effect and 100 is complete control) (soybean; 125 g ai/ha): 70
- Plant response rating (scale of 0 to 100 where 0 is no effect and 100 is complete control) (waterhemp; 16 g ai/ha): 95
- Plant response rating (scale of 0 to 100 where 0 is no effect and 100 is complete control) (waterhemp; 31 g ai/ha): 98
- Plant response rating (scale of 0 to 100 where 0 is no effect and 100 is complete control) (waterhemp; 62 g ai/ha): 98
- Plant response rating (scale of 0 to 100 where 0 is no effect and 100 is complete control) (waterhemp; 125 g ai/ha): 98

Source: patent US10681909B2, “Herbicidal triazoles” (FMC Corporation, priority 2014, dated 2020)
